Experimental data as given in PubChem BioAssay AID330 (DTP/NCI, 2004).
Values joined by “and” are separate entries in the source; they are usually repeats but may differ in a detail not shown here. Equal values may be shown once. Inconclusive results and toxic doses are left out.

System: P388 leukemia ip, CD2F1 mice, survival T/C
Test: NCI In Vivo Anticancer Drug Screen. Data for tumor model P388 Leukemia (intraperitoneal) in CD2F1 (CDF1) mice
Settings: endpoint: median survival time, higher = longer survival
Outline: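 Mice carrying the transplanted tumor received test compound or vehicle. Survival was recorded in each group, and the value is the treated-group measurement divided by that of the vehicle-treated control group.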

[1] = dose: 50.0 mg/kg/injection, schedule: Q01DX005 (ip), vehicle: saline with Tween-80
[2] = dose: 100.0 mg/kg/injection, schedule: Q01DX005 (ip), vehicle: saline with Tween-80
[3] = dose: 200.0 mg/kg/injection, schedule: Q01DX005 (ip), vehicle: saline with Tween-80
[4] = dose: 25.0 mg/kg/injection, schedule: Q01DX009 (ip), vehicle: other
[5] = dose: 60.0 mg/kg/injection, schedule: Q01DX005 (ip), vehicle: saline with Tween-80
[6] = dose: 120.0 mg/kg/injection, schedule: Q01DX005 (ip), vehicle: saline with Tween-80
[7] = dose: 240.0 mg/kg/injection, schedule: Q01DX005 (ip), vehicle: saline with Tween-80
[8] = dose: 50.0 mg/kg/injection, schedule: Q01DX009 (ip), vehicle: saline
[9] = dose: 100.0 mg/kg/injection, schedule: Q01DX009 (ip), vehicle: saline
[10] = dose: 200.0 mg/kg/injection, schedule: Q01DX009 (ip), vehicle: saline
[11] = dose: 50.0 mg/kg/injection, schedule: Q04DX003 (ip), vehicle: saline with Tween-80
[12] = dose: 100.0 mg/kg/injection, schedule: Q04DX003 (ip), vehicle: saline with Tween-80

Q: For `O=C1CC=C2C3CC4N(CCC45c4cc(O)c(O)cc4N1C25)C/C3=C\CBr` (stereo not drawn), which T/C (dose: 7.5 mg/kg/injection, schedule: Q01DX005 (ip), vehicle: Klucel (hydroxypropylcellulose) (HPC)) is on record?
A: 106 % of control

Q: And the T/C (dose: 15.0 mg/kg/injection, schedule: Q01DX005 (ip), vehicle: Klucel (hydroxypropylcellulose) (HPC))?
A: 108 % of control

Q: What about the T/C (dose: 30.0 mg/kg/injection, schedule: Q01DX005 (ip), vehicle: Klucel (hydroxypropylcellulose) (HPC)) of the same molecule?
A: 123 % of control

Q: `O=C(CC1=NC2NN(c3ccccc3)C(=O)C2=C1CC(=O)c1cccc2ccccc12)c1cccc2ccccc12` (stereo not drawn) was tested. Which T/C [1] did it give?
A: 107 % of control

Q: What about the T/C [2] of the same molecule?
A: 107 % of control

Q: And the T/C [3]?
A: 107 % of control

Q: What does the source list for `COc1ccc2ccc(CO)cc2c1OC`?
A: T/C [4]: 98 % of control; T/C (dose: 50.0 mg/kg/injection, schedule: Q01DX009 (ip), vehicle: other): 92 % of control; T/C (dose: 100.0 mg/kg/injection, schedule: Q01DX009 (ip), vehicle: other): 90 % of control; T/C (dose: 200.0 mg/kg/injection, schedule: Q01DX009 (ip), vehicle: other): 99 % of control; T/C (dose: 400.0 mg/kg/injection, schedule: Q01DX009 (ip), vehicle: other): 90 % of control

Q: What does the source list for `Cc1cccc(C(C)C)c1NC(=O)C(=O)C(C#N)c1ccc(CC#N)cc1` (stereo not drawn)?
A: T/C [5]: 99 % of control; T/C [6]: 98 % of control

Q: Which T/C (dose: 100.0 mg/kg/injection, schedule: Q04DX003 (ip), vehicle: alcohol) does the source give for `O=C(O)c1ccc(O)c(S)c1` here?
A: 106 % of control

Q: What about the T/C (dose: 200.0 mg/kg/injection, schedule: Q04DX003 (ip), vehicle: alcohol) of the same molecule?
A: 101 % of control

Q: And the T/C (dose: 400.0 mg/kg/injection, schedule: Q04DX003 (ip), vehicle: alcohol)?
A: 105 % of control

Q: With `O=P(c1ccccc1)(c1ccccc1)c1ccccc1` (tested in a mixture with another compound) as the molecule, how does the T/C [4] read?
A: 89 % of control

Q: How did the T/C (dose: 100.0 mg/kg/injection, schedule: Q01DX001 (ip), vehicle: saline with Tween-80) turn out when `Cc1cc([N+](=O)[O-])cc(Br)c1N` was run?
A: 100 % of control

Q: And the T/C (dose: 200.0 mg/kg/injection, schedule: Q01DX001 (ip), vehicle: saline with Tween-80)?
A: 95 % of control

Q: And the T/C (dose: 400.0 mg/kg/injection, schedule: Q01DX001 (ip), vehicle: saline with Tween-80)?
A: 95 % of control

Q: `Cc1ccc2nc3c(nc2c1)n(-c1ccccc1)c(=O)n3-c1cccc(Cl)c1` was tested. Which T/C [1] did it give?
A: 90 % of control

Q: And the T/C [2]?
A: 100 % of control

Q: And the T/C [3]?
A: 101 % of control

Q: `CC(C)NC(=O)OCc1c(COC(=O)NC(C)C)c(Sc2ccccc2)n2c1CCC2` was tested. Which T/C (dose: 25.0 mg/kg/injection, schedule: Q01DX005 (ip), vehicle: saline with Tween-80) did it give?
A: 154 % of control

Q: And the T/C [1]?
A: 163 % of control

Q: What about the T/C [2] of the same molecule?
A: 110 % of control

Q: Which results are given for `COc1ccc(Cc2cc3c(cc2OC)OCO3)cc1`?
A: T/C (dose: 2.5 mg/kg/injection, schedule: Q01DX009 (ip), vehicle: saline with Tween-80): 99 % of control; T/C (dose: 5.0 mg/kg/injection, schedule: Q01DX009 (ip), vehicle: saline with Tween-80): 99 % of control; T/C (dose: 10.0 mg/kg/injection, schedule: Q01DX009 (ip), vehicle: saline with Tween-80): 99 % of control; T/C (dose: 15.0 mg/kg/injection, schedule: Q01DX005 (ip), vehicle: saline with Tween-80): 102 % of control; T/C (dose: 31.0 mg/kg/injection, schedule: Q01DX005 (ip), vehicle: saline with Tween-80): 102 % of control; T/C (dose: 62.5 mg/kg/injection, schedule: Q01DX005 (ip), vehicle: saline with Tween-80): 109 % of control; T/C (dose: 125.0 mg/kg/injection, schedule: Q01DX005 (ip), vehicle: saline with Tween-80): 103 % of control; T/C (dose: 250.0 mg/kg/injection, schedule: Q01DX005 (ip), vehicle: saline with Tween-80): 103 % of control

Q: Which T/C (dose: 6.25 mg/kg/injection, schedule: Q01DX005 (ip), vehicle: saline with Tween-80) does the source give for `CC1CCN(C(=S)NNC(C)c2cc3ccccc3cn2)CC1` (stereo not drawn) here?
A: 114 % of control

Q: Which results are given for `CCCCn1cnc(C(=O)OC)c1O` (tested in a mixture with another compound)?
A: T/C (dose: 100.0 mg/kg/injection, schedule: Q04DX002 (ip), vehicle: water): 103 % of control; T/C (dose: 200.0 mg/kg/injection, schedule: Q04DX002 (ip), vehicle: water): 101 % of control; T/C (dose: 400.0 mg/kg/injection, schedule: Q04DX002 (ip), vehicle: water): 108 % of control

Q: What does the source list for `O=C(NCCO)Nc1ccc2c(c1)OCCOCCOCCOCCO2`?
A: T/C (dose: 30.0 mg/kg/injection, schedule: Q01DX005 (ip), vehicle: saline): 98 % of control; T/C (dose: 60.0 mg/kg/injection, schedule: Q01DX005 (ip), vehicle: saline): 101 % of control; T/C (dose: 120.0 mg/kg/injection, schedule: Q01DX005 (ip), vehicle: saline): 99 % of control; T/C (dose: 240.0 mg/kg/injection, schedule: Q01DX005 (ip), vehicle: saline): 99 % of control

Q: Which T/C [5] does the source give for `O=CNc1ccc(C(=O)O)c(O)c1` here?
A: 98 % of control

Q: And the T/C [6]?
A: 93 % of control

Q: What about the T/C [7] of the same molecule?
A: 90 % of control

Q: What does the source list for `O=C(NC(CC(NC(=O)OCc1ccccc1)NC(=O)OCc1ccccc1)NC(=O)OCc1ccccc1)OCc1ccccc1`?
A: T/C [5]: 89 % of control; T/C [6]: 91 % of control; T/C [7]: 103 % of control

Q: Which T/C (dose: 25.0 mg/kg/injection, schedule: Q04DX002 (ip), vehicle: saline with Tween-80) does the source give for `CN=C(N)N/N=C(\c1ccccc1)c1cc(Cl)c(O)c(Cl)c1` here?
A: 101 % of control

Q: And the T/C (dose: 50.0 mg/kg/injection, schedule: Q04DX002 (ip), vehicle: saline with Tween-80)?
A: 100 % of control

Q: What about the T/C (dose: 100.0 mg/kg/injection, schedule: Q04DX002 (ip), vehicle: saline with Tween-80) of the same molecule?
A: 100 % of control

Q: And the T/C (dose: 200.0 mg/kg/injection, schedule: Q04DX002 (ip), vehicle: saline with Tween-80)?
A: 104 % of control

Q: What about the T/C (dose: 400.0 mg/kg/injection, schedule: Q04DX002 (ip), vehicle: saline with Tween-80) of the same molecule?
A: 103 % of control

Q: Which results are given for `CC1=NN(c2cc(S(=O)(=O)O)ccc2Cl)C(=O)C1`?
A: T/C [8]: 101 % of control; T/C [9]: 105 % of control; T/C [10]: 97 % of control

Q: Which T/C [8] does the source give for `CC(=O)Oc1cc2nc3ccccc3nc2cc1N(C)C` here?
A: 99 % of control

Q: And the T/C [9]?
A: 90 % of control

Q: What about the T/C [10] of the same molecule?
A: 100 % of control

Q: Which T/C [11] does the source give for `N#C/C(=C\c1cccc2ccccc12)c1ccc(Cl)cc1` here?
A: 94 % of control

Q: What about the T/C [12] of the same molecule?
A: 97 % of control

Q: What about the T/C (dose: 200.0 mg/kg/injection, schedule: Q04DX003 (ip), vehicle: saline with Tween-80) of the same molecule?
A: 103 % of control

Q: And the T/C (dose: 400.0 mg/kg/injection, schedule: Q04DX003 (ip), vehicle: saline with Tween-80)?
A: 97 % of control

Q: What does the source list for `CC1C[C@@H]2OC(=O)C(C)[C@@H]2C(O)[C@@]2(C)C(=O)C=CC12` (stereo partly drawn)?
A: T/C (dose: 1.38 mg/kg/injection, schedule: Q01DX005 (ip), vehicle: Klucel (hydroxypropylcellulose) (HPC)): 104 % of control; T/C (dose: 2.75 mg/kg/injection, schedule: Q01DX005 (ip), vehicle: Klucel (hydroxypropylcellulose) (HPC)): 104 % of control; T/C (dose: 5.5 mg/kg/injection, schedule: Q01DX005 (ip), vehicle: Klucel (hydroxypropylcellulose) (HPC)): 112 % of control; T/C (dose: 11.0 mg/kg/injection, schedule: Q01DX005 (ip), vehicle: Klucel (hydroxypropylcellulose) (HPC)): 111 % of control

Q: Which results are given for `COC(=O)c1c(-c2cc(OC)c(OC)cc2[N+](=O)[O-])cn(C)c1C`?
A: T/C [1]: 88 % of control; T/C [2]: 86 % of control

Q: How did the T/C (dose: 50.0 mg/kg/injection, schedule: Q01DX009 (ip), vehicle: saline with Tween-80) turn out when `CCOC(=O)Nc1ccc2nc(Sc3ccc(C)cc3)sc2c1` was run?
A: 99 % of control

Q: And the T/C (dose: 100.0 mg/kg/injection, schedule: Q01DX009 (ip), vehicle: saline with Tween-80)?
A: 110 % of control

Q: What about the T/C (dose: 200.0 mg/kg/injection, schedule: Q01DX009 (ip), vehicle: saline with Tween-80) of the same molecule?
A: 119 % of control

Q: What does the source list for `COc1cc(C=Nc2cccc(C(=O)O)c2)ccc1N(CCCl)CCCl`?
A: T/C (dose: 25.0 mg/kg/injection, schedule: Q01DX009 (ip), vehicle: saline): 122 % of control; T/C [11]: 150 % of control; T/C (dose: 66.0 mg/kg/injection, schedule: Q04DX003 (ip), vehicle: saline with Tween-80): 272 % of control; T/C [12]: 181 % of control

Q: With `COc1cc2c(c(OC)c1OC)-c1ccc(OC)c(=O)cc1[C@@H](N(C)Cc1ccccc1O)CC2` as the molecule, how does the T/C (dose: 1.25 mg/kg/injection, schedule: Q01DX009 (ip), vehicle: Klucel (hydroxypropylcellulose) (HPC)) read?
A: 97 % of control

Q: And the T/C (dose: 2.5 mg/kg/injection, schedule: Q01DX009 (ip), vehicle: Klucel (hydroxypropylcellulose) (HPC))?
A: 97 % of control

Q: And the T/C (dose: 5.0 mg/kg/injection, schedule: Q01DX009 (ip), vehicle: Klucel (hydroxypropylcellulose) (HPC))?
A: 111 % of control

Q: And the T/C (dose: 20.0 mg/kg/injection, schedule: Q01DX009 (ip), vehicle: Klucel (hydroxypropylcellulose) (HPC))?
A: 166 % of control and 188 % of control

Q: `COc1ccc(N2C(=O)C3CSCN3C2=O)cc1` (stereo not drawn) was tested. Which T/C [5] did it give?
A: 100 % of control

Q: And the T/C [6]?
A: 94 % of control

Q: What about the T/C [7] of the same molecule?
A: 92 % of control
